Legend:
mTORC1 = mTORC1 (Mus musculus, UniProt P26883+Q9JLN9); assay: Immunoblot of liver, muscle and brain after four weeks, mTORC1; type: in vivo, male C57BL/6J mice; details: rapamycin 8 mg/kg, compound 390 12 mg/kg i.p. every other day
Description: Fortyfive C57BL/6J male mice, housed three per cage, were weighed and their body composition was measured with an EchoMRI 3-in-1 system. […] Mice received every-other-day injections of either vehicle, rapamycin (8 mg/kg), or compound 390 (12 mg/kg). A glucose tolerance test was performed after 2 weeks (morning after the 8th injection). A pyruvate tolerance test was performed after 3 weeks. Glucose stimulated insulin secretion assay was performed after 4 weeks and additional blood was collected for whole blood analysis. Body composition was measured on day −2 and day 31.
For western blotting, antibodies to phospho-Akt S473 (4060), Akt (4691), phospho-S6 ribosomal protein (2215), S6 ribosomal protein (2217), phospho-4E-BP1 S65 (9451) and 4E-BP1 (9452) were from Cell Signaling Technology.
Cells and tissue samples were lysed in cold RIPA buffer supplemented with phosphatase inhibitor and protease inhibitor cocktail tablets (PI88669, Fisher Scientific). Tissues were lysed in RIPA buffer using a FastPrep 24 (M.P. Biomedicals) with bead-beating tubes and ceramic beads (Mo-Bio Laboratories), and then centrifuged. Protein concentration was determined by Bradford assay (Pierce Biotechnology). Protein was separated by sodium dodecylsulphate-polyacrylamide gel electrophoresis (SDS-PAGE) on 8, 10, or 16% resolving gels (Life Technologies).

Tg4510 mice = assay: Morris water maze test in Tg4510 mice; type: in vivo; details: 12 mg/kg, 4-weeks treatment, versus vehicle-treated Tg4510 mice
Description: (§1) Female Tg4510 and control mice were purchased from the Jackson Laboratory (Bar Harbor, Me.). All mice were examined and weighed prior to initiation of the study to ensure adequate health and suitability and were caged under controlled temperature (20-23° C.) and relative humidity (maintained around 50%). All tests were performed during the animal's light cycle phase. Mice received every-other-day injections of either vehicle or compound 390 (12 mg/kg) in the following groups: (a) wild-type (WT) mice receiving vehicle (n=16); (b) Tg4510 mice receiving vehicle (n=15) and (c) Tg4510 mice receiving DL390 (12 mg/kg; n=15)
The test was performed in a circular tank, measuring 48″ in diameter. Extra-maze cues were mounted around the water tank. On 5 consecutive days of the week, test sessions were conducted with the platform submerged approximately 1.3 cm below the surface of the water. On each day, there were 4 trials, 60 s long. Approximately 15 min elapsed between each trial. On the fifth day of acquisition training, the last trial (out of 4) consisted of 60 s without the platform.

mTORC2 = mTORC2 (Mus musculus, UniProt P26883+Q9JLN9); assay: Western blot of mouse tissues after 3 weeks i.p. dosing, mTORC2 (P-AKT/Total AKT); type: in vivo, female C57BL/6J mice; details: soleus muscle, 12 mg/kg i.p. every other day for 3 weeks
Description: (§2) 10-week old female C57BL/6J mice were given intraperitoneal injections of 8 mg/kg rapamycin (LC laboratories), 12 mg/kg compound 390 or vehicle every other day for three weeks (N=5 mice/group), such as to mimic chronic exposure conditions. 24 hours after the last injection, tissues were dissected from the mice and immediately frozen in liquid nitrogen. The tissues were homogenized using the Omni TH homogenizer (Omni International) on ice in RIPA buffer and then centrifuged at 13,000 rpm for 15 minutes at 4° C. The supernatants were collected and protein concentration was determined using the DC protein assay (Biorad).
The mTORC1/2 inhibition was determined by Western blots. Equal amounts of protein were resolved by SDS-PAGE and transferred to nitrocellulose membrane using the Invitrogen Nu-Page system. The membranes were blocked for 1 h in 5% milk and incubated overnight in the appropriate antibodies. The following day, blots were washed 3 times in TBST, incubated for 2 h with secondary antibodies (donkey anti rabbit hrp conjugated), and finally washed an additional 3 times in TBST. ECL Prime (Amersham) was used to detect the proteins of interest and ImageJ software was used to quantify the band intensity of the Western blots.

[1] = system: autophagy markers (pULK/ULK, Beclin-1, Vps34, LC3B, p62); assay: Autophagy markers in brain of Tg4510 mice; type: in vivo; details: 12 mg/kg i.p., 4 weeks
Description: as §1
A number of autophagy markers were measured both in the cortex and hippocampus tissue to assess the status of the autophagic clearance mechanism across the three study groups. Specifically, pULK/ULK, Beclin-1, Vps34, LC3B and p62 were measured using the appropriate antibodies (Cell Signaling Technology).

[2] = Steady state glucose levels after one week of i.p. dosing; type: in vivo, female C57BL/6J mice; details: 12 mg/kg i.p. every other day, versus vehicle
Description: as §2
Steady state glucose levels were determined after one week from study initiation using a Bayer Contour blood glucose meter and test strips from small blood samples, which were withdrawn from a tail vein nick. At the end of the second week, the animals were challenged by administration of 2 mg/kg glucose; glucose levels were determined for two hours following the challenge at 30 min intervals.

[3] = heart, visceral fat, pancreas, kidney

mTORC2, sequence (P26883 2-108 limits assumed, other chains not shown): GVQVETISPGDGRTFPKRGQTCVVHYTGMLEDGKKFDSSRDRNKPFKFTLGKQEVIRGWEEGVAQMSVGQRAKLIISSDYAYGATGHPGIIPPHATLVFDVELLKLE

CO[C@H]1CC2CC[C@@H](C)[C@@](O)(O2)C(=O)C(=O)N2CCCC[C@H]2C(=O)O[C@H]([C@@H](C)CC2CCC(O)CC2)CC(=O)[C@@H](C)/C=C(\C)[C@H](O)[C@H](O)C(=O)[C@@H](C)C[C@H](C)/C=C/C=C/C=C/1C (some centres unmarked) [compound 390, 27-O-Desmethyl-39-Desmethoxy Rapamycin]
mTORC1 inhibition in liver, muscle and brain (mTORC1): significantly inhibits mTORC1 at approximately the same level as rapamycin
behavioral performance, total distance travelled during acquisition days (Tg4510 mice): strong trends of behavioral improvement
mTORC2 inhibition in tissues (mTORC2; gastrocnemius muscle, lung, liver): very weak
change of mTORC2 activity in tissues (mTORC2; [3]): small upregulation of mTORC2 activity
mTORC2 inhibition in tissues (mTORC2; [3]): no inhibition of mTORC2
Beclin-1 activity (initiation phase of autophagy) [1]: nearly full restoration of Beclin-1 activity
ULK1 phosphorylation (induction phase of autophagy) [1]: reduction of ULK1 phosphorylation
accumulated LC3B-II levels (maturation and lysosomal clearance) [1]: substantial reduction
accumulated p62 levels (maturation and lysosomal clearance) [1]: substantial reduction
autophagy in the brain, all stages [1]: substantial and statistically significant upregulation
change of steady state glucose plasma levels [2]: does not produce any substantial or statistically significant increase
